Experimental data from US11952364B2, “TRK inhibitors useful as anticancer drugs” (TYLIGAND BIOSCIENCE (SHANGHAI) LIMITED, priority 2018, dated 2024).
Where two headings read alike, the source gives them in different places. Values belong to the compound of their own block, whether it stands above or below them.

Test system: Ba/F3 LMNA-NTRK1-G667C cells
Test: Proliferation of Ba/F3 LMNA-NTRK1-G667C cells (CellTiter-Glo)
Format: cell-based, mouse
From the text: Ba/F3 LMNA-NTRK1-G667C is a stable transgenic cell line constructed by KYinno Biotechnology Co., Ltd. on mouse primary B cell Ba/F3 wherein NTRK1 has a mutation of G to Cat position 667 and is highly expressed and fused with LMNA to form LMNA-NTRK1-G667C. • [Test method]: Promega's CellTiter-Glo® Luminescent Cell Viability Assay kit was used to evaluate the inhibitory activity of the compounds on the proliferation of Ba/F3 LMNA-NTRK1-G667C cells. • [Instrument]: Spectramax M3 multifunctional microplate reader from Molecular Devices. • [Test materials]: Ba/F3 LMNA-NTRK1-G667C cell line (constructed by KYinno Co., Ltd. (Beijing)), 96-well transparent flat-bottomed black-walled cell culture plate (Corning, cat #3603), RPMI-1640 media (GE, cat #SH30027.01), fetal bovine serum FBS (Thermo Fisher, cat #10099-141), CellTiter-Glo® Luminescent Cell Viability Assay kit (Promega, cat #G7572), PBS (Solarbio, cat #P1020), DMSO (Sigma, cat #D2650). • [Experimental procedure]: When resuscitating Ba/F3 LMNA-NTRK1-G667C cells, the freezing tube was quickly shaken in a 37° C. water bath to melt within 1 minute. The thawed cell suspension was mixed uniformly with RPMI1640 medium containing 10% FBS, centrifuged at 1000 rpm for 5 minutes, and the supernatant discarded. 5 mL of complete medium (RPMI1640 medium with 10% FBS) was taken to resuspend the cell pellets, charged into a cell culture flask with a bottom area of 25 cm^2, and incubated in a cell incubator at 37° C., 95% humidity and 5% CO2. Cells were allowed to passage when the number of cells reached about 10^6 cells/mL. For cell passage, the old cell suspension was directly pipetted evenly, 1/5 of the cell suspension was kept, 4 mL of new complete medium was added, after pipetting evenly, the cell flask was placed in the cell incubator for further culturing. Cell plating was performed when the number of cells reached about 10^6 cells/mL again. For cell plating, 1/5 of the cell suspension was kept for further culturing as in the cell passage method, and the remaining 4/5 of the cell suspension was placed in a 15 mL centrifuge tube, detected for cell viability by Trypan blue exclusion method to ensure that cell viability was above 90%. A cell suspension with a density of 5.56×10^4 viable cells/mL was prepared with complete medium, and 90 μL of such cell suspension was added to a 96-well cell culture plate to obtain the cell density of 5000 viable cells/mL in the cell culture plate. A control group containing no cells, no compound and only complete medium (i.e. culture medium control) and a control group containing no compound but containing cells (i.e. cell control) were set. The cell plate was placed in a cell incubator overnight. The 10 mM compound stock solution in DMSO was first serially diluted with DMSO at a dilution factor of 3.16 times, to obtain 9 concentrations, and the 10th concentration was set as DMSO control without compound. Then, PBS was used to dilute the DMSO solutions of compounds of different concentrations, at a dilution factor of 100 times, so that the DMSO concentration in the compound solution of each concentration was 1%. Finally, 10 μL of each of the above solutions was added to the corresponding cell culture plate, so that the initial compound concentration was 10 μM, with the remaining concentrations being successively diluted at a dilution factor of 3.16 times, and the DMSO content in the cell culture plate was 0.1%. The cell plate was placed in a cell incubator and cultured for 72 hours. For endpoint detection, the CellTiter-Glo reagent was melted, and the cell plate was moved to room temperature to equilibrate for 30 minutes, added with 100 μL of CellTiter-Glo for each well, and shaken on an orbital shaker for 5 minutes to fully lyse the cells. The plate was kept at room temperature for 20 minutes to stabilize the luminescence signal, and the luminescence value of each well was scanned with a multi-functional microplate reader at full wavelength. • [Test samples] […]

[1] = Mus musculus, BaF3, Table 9, read-out: Ba/F3 LMNA-NTRK1-G667C cell proliferation inhibitory activity (IC50)
[2] = Mus musculus, BaF3, Table 4-2, separate test, read-out: Ba/F3 LMNA-NTRK1-G667C, IC50
[3] = Mus musculus, BaF3, 72 h, Table 4, 72 hours, read-out: Ba/F3 LMNA-NTRK1-G667C, IC50
[4] = Mus musculus, BaF3, Table 4-1, separate test, read-out: Ba/F3 LMNA-NTRK1-G667C, IC50

Compound: Cc1ccc(C(=O)Nc2ccc(Oc3cc4cnn5c4c(c3-c3cn[nH]c3)CC5)c(F)c2)c(=O)n1-c1ccc(F)cc1 [Example 31, N-(4-((5-(1H-pyrazol-4-yl)-6,7-dihydropyrrolo[3,2,1-hi]-indazol-4-yl)oxy)-3-fluorophenyl)-1-(4-fluorophenyl)-6-methyl-2-oxo-1,2-dihydropyridine-3-carboxamide]
IC50 [1]: 33 nM

Compound: CC(C)Oc1ccc(C(=O)Nc2ccc(Oc3cc4cnn5c4c(c3-c3cn[nH]c3)CC5)c(F)c2)c(=O)n1-c1ccc(F)cc1 [Example 34, N-(4-((5-(1H-pyrazol-4-yl)-6,7-dihydropyrrolo[3,2,1-hi]-indazol-4-yl)oxy)-3-fluorophenyl)-1-(4-fluorophenyl)-6-isopropoxy-2-oxo-12-dihydropyrndine-3-carboxamide]
IC50 [1]: 23.7 nM

Compound: Cn1ncc2cc(Oc3ccc(NC(=O)c4ccc(OC5CC5)n(-c5ccc(F)cc5)c4=O)cc3F)c(-c3cn[nH]c3)cc21 [Example 15, N-(3-fluoro-4-(1-methyl-6-(1H-pyrazol-4-yl)-1H-indazol-5-yloxy)phenyl)-1-(4-fluorophenyl)-6-cyclopropoxy-2-oxo-1,2-dihydropyridine-3-carboxamide]
IC50 [2]: 10.8 nM

Compound: COc1ccc(C(=O)Nc2ccc(Oc3cc4cnn5c4c(c3-c3cn[nH]c3)CC5)c(F)c2)c(=O)n1-c1ccc(F)cc1 [Example 28, N-(4-((5-(1H-pyrazol-4-yl)-6,7-dihydropyrrolo[3,2,1-hi]-indazol-4-yl)oxy)-3-fluorophenyl)-1-(4-fluorophenyl)-6-methoxy-2-oxo-1,2-dihydropyidine-3-carboxamide]
IC50 [1]: 19.8 nM

Compound: O=C(Nc1cnn2ccc(N3CCC[C@@H]3c3cc(F)ccc3F)nc12)N1CC[C@H](O)C1 [LOXO-101, Larotrectinib, reference compound]
IC50 [3]: 2410 nM

Compound: Cn1ncc2cc(Oc3ccc(NC(=O)c4ccc(C(F)(F)F)n(-c5ccc(F)cc5)c4=O)cc3F)c(-c3cn[nH]c3)cc21 [Example 1, N-(3-fluoro-4-(1-methyl-6-(1H-pyrazol-4-yl)-1H-indazol-5-yloxy)phenyl)-1-(4-fluorophenyl)-6-trifluoromethyl-2-oxo-1,2-dihydmpyridine-3-carboxamide monomethanesulfonate]
IC50 [3]: 2 nM

Compound: Cn1ncc2cc(Oc3ccc(NC(=O)c4ccc(C5CC5)n(-c5ccc(F)cc5)c4=O)cc3F)c(-c3cn[nH]c3)cc21 [Example 2, N-(3-fluoro-4-(1-methyl-6-(1H-pyrazol-4-yl)-1H-indazol-5-yloxy)phenyl)-1-(4-fluorophenyl)-6-cyclopropyl-2-oxo-1,2-dihydmpyridine-3-carboxamide]
IC50 [3]: 1.1 nM

Compound: CCOc1ccc(C(=O)Nc2ccc(Oc3cc4cnn(CC)c4cc3-c3cn[nH]c3)c(F)c2)c(=O)n1-c1ccc(F)cc1 [Example 24, N-(3-fluoro-4-(1-ethyl-6-(1H-pyrazol-4-yl)-1H-indazol-5-yloxy)phenyl)-1-(4-fluorophenyl)-6-ethoxy-2-oxo-12-dihydropyridine-3-carboxamide]
IC50 (Table 4-2, separate test, read-out: Ba/F3 LMNA-NTRK1-G667C, IC50): 17.3 nM

Compound: Cc1ccc(C(=O)Nc2ccc(Oc3cc4cnn(C)c4cc3-c3cn[nH]c3)c(F)c2)c(=O)n1-c1ccc(F)cc1 [Merestinib, reference compound]
IC50 [3]: 1.1 nM
IC50 [4]: 1 nM
IC50 [2]: 14.1 nM

Compound: CSc1ccc(C(=O)Nc2ccc(Oc3cc4cnn(C)c4cc3-c3cn[nH]c3)c(F)c2)c(=O)n1-c1ccc(F)cc1 [Example 11, N-(3-fluoro-4-(1-methyl-6-(1H-pyrazol-4-yl)-1H-indazol-5-yloxy)phenyl)-1-(4-fluorophenyl)-6-methylthio-2-oxo-1,2-dihydropyidine-3-carboxamide]
IC50 [2]: 10.5 nM

Compound: CCOc1ccc(C(=O)Nc2ccc(Oc3cc4cnn5c4c(c3-c3cn[nH]c3)CC5)c(F)c2)c(=O)n1-c1ccc(F)cc1 [Example 32, N-(4-((5-(1H-pyrazol-4-yl)-6,7-dihydropyrrolo[3,2,1-hi]-indazol-4-yl)oxy)-3-fluorophenyl)-6-ethoxy-1-(4-fluorophenyl)-2-oxo-12-dihydropyridine-3-carboxamide]
IC50 [1]: 19 nM

The next lines start with the values.

IC50 [2]: 17.5 nM
Compound: CCn1ncc2cc(Oc3ccc(NC(=O)c4ccc(OC(C)C)n(-c5ccc(F)cc5)c4=O)cc3F)c(-c3cn[nH]c3)cc21 [Example 26, N-(3-fluoro-4-(1-ethyl-6-(1H-pyrazol-4-yl)-1H-indazol-5-yloxy)phenyl)-1-(4-fluorophenyl)-6-isopropoxy-2-oxo-1,2-dihydropyridine-3-carboxamide]

IC50 [3]: 0.66 nM
Compound: CC(C)c1ccc(C(=O)Nc2ccc(Oc3cc4cnn(C)c4cc3-c3cn[nH]c3)c(F)c2)c(=O)n1-c1ccc(F)cc1 [Example 6, N-(3-fluoro-4-(1-methyl-6-(1H-pyrazol-4-yl)-1H-indazol-5-yloxy)phenyl)-1-(4-fluorophenyl)-6-isopropyl-2-oxo-1,2-dihydropyridine-3-carboxamide]

IC50 [2]: 10.7 nM
Compound: CC(C)Oc1ccc(C(=O)Nc2ccc(Oc3cc4cnn(C)c4cc3-c3cn[nH]c3)c(F)c2)c(=O)n1-c1ccc(F)cc1 [Example 16, N-(3-fluoro-4-(1-methyl-6-(1H-pyrazol-4-yl)-1H-indazol-5-yloxy)phenyl)-1-(4-fluorophenyl)-6-isopropoxy-2-oxo-1,2-dihydropyridine-3-carboxamide]

IC50 [4]: < 1 nM
Compound: COc1ccc(C(=O)Nc2ccc(Oc3cc4cnn(C)c4cc3-c3cn[nH]c3)c(F)c2)c(=O)n1-c1ccc(F)cc1 [Example 12, N-(3-fluoro-4-(1-methyl-6-(1H-pyrazol-4-yl)-1H-indazol-5-yloxy)phenyl)-1-(4-fluorophenyl)-6-methoxy-2-oxo-1,2-dihydropyridine-3-carboxamide]

IC50 [4]: 1 nM
Compound: CCn1ncc2cc(Oc3ccc(NC(=O)c4ccc(OC)n(-c5ccc(F)cc5)c4=O)cc3F)c(-c3cn[nH]c3)cc21 [Example 23, N-(3-fluoro-4-(1-ethyl-6-(1H-pyrazol-4-yl)-1H-indazol-5-yloxy)phenyl)-1-(4-fluorophenyl)-6-methoxy-2-oxo-1,2-dihydropyridine-3-carboxamide]

IC50 [4]: 2 nM
Compound: CCn1ncc2cc(Oc3ccc(NC(=O)c4ccc(C5CC5)n(-c5ccc(F)cc5)c4=O)cc3F)c(-c3cn[nH]c3)cc21 [Example 19, N-(3-fluoro-4-(1-ethyl-6-(1H-pyrazol-4-yl)-1H-indazol-5-yloxy)phenyl)-1-(4-fluorophenyl)-6-cyclopropyl-2-oxo-1,2-dihydropyridine-3-carboxamide]

IC50 [3]: 2.8 nM
Compound: Cc1ccc(C(=O)Nc2ccc(Oc3cc4cnn(C(C)C)c4cc3-c3cn[nH]c3)c(F)c2)c(=O)n1-c1ccc(F)cc1 [Example 4, N-(3-fluoro-4-(1-isopropyl-6-(1H-pyrazol-4-yl)-1H-indazol-5-yloxy)phenyl)-1-(4-fluorophenyl)-6-methyl-2-oxo-1,2-dihydmpyridine-3-carboxamide]

IC50 [3]: 1.6 nM
Compound: CCn1ncc2cc(Oc3ccc(NC(=O)c4ccc(C)n(-c5ccc(F)cc5)c4=O)cc3F)c(-c3cn[nH]c3)cc21 [Example 3, N-(3-fluoro-4-(1-ethyl-6-(1H-pyrazol-4-yl)-1H-indazol-5-yloxy)phenyl)-1-(4-fluorophenyl)-6-methyl-2-oxo-1,2-dihydmpyridine-3-carboxamide]
